{"source": "paper PMC9704499", "about": "(European journal of medicinal chemistry, 2021)", "tested_on": "Tau0N4R-TM-tGFP U2OS cells", "assay": "Tau phosphorylation", "details": "25–100 μM, 6 hrs", "data": [{"smiles": "c1ccc(CNc2nc(Nc3cc(C4CC4)[nH]n3)c3sccc3n2)cc1", "note": "[Compound 4, N2-benzyl-N4-(5-cyclopropyl-1H-pyrazol-3-yl)thieno[3,2-d]pyrimidine-2,4-diamine]", "values": [{"measurement": "cytotoxicity in bundle formation assay", "value": "cytotoxicity effects started to appear"}]}]}
